Data published in ChEMBL document CHEMBL3091398, “Anthranilic acid-based Thumb Pocket 2 HCV NS5B polymerase inhibitors with sub-micromolar potency in the cell-based replicon assay” (Bioorg Med Chem Lett, 2013).

Columns and labels:
Hepatitis C virus = experiment: Antiviral activity against HCV genotype 1b by cell-based luciferase reporter gene assay; type: functional, organism-based, Hepacivirus hominis
[1] = Inhibition of HCV genotype 1b NS5B delta21 polymerase; design: species or system Hepatitis C virus subtype 1b
[2] = Half life in rat liver microsomes at 2 uM; type: ADME
[3] = Half life in human liver microsomes at 2 uM; type: ADME
[4] = Solubility of the compound at pH 2 after 24 hrs by shake-flask method; type: physicochemical; conditions: buffer, pH 2, 24 h
[5] = Permeability across apical to basolateral side in human Caco2 cells; type: ADME, cell-based; conditions: Caco-2, read-out: permeability
[6] = Dissociation constant, pKa of the compound; type: physicochemical
[7] = Lipophilicity, log D of the compound at pH 7.4; type: physicochemical; conditions: buffer

EC50 (Hepatitis C virus) [µM]	IC50 [1] [µM]	SMILES	further results
6.3	0.47	CC(C)N(c1ccc(Oc2cccc(C(F)(F)F)c2)cc1C(=O)O)C(=O)[C@H]1CC[C@H](C)CC1	–
> 30	0.53	Cc1ccc(S(=O)(=O)Nc2ccc(Oc3ccccc3C)cc2C(=O)O)cc1	–
1	0.46	CC(C)N(c1ccc(OC2CCCC2)cc1C(=O)O)C(=O)[C@H]1CC[C@H](C)CC1	–
> 30	0.47	Cc1ccc(S(=O)(=O)Nc2ccc(Oc3cccc(C)c3)cc2C(=O)O)cc1	–
> 50	> 40	CC(C)N(c1cc(OC2CCCC2)ccc1C(=O)O)C(=O)[C@H]1CC[C@H](C)CC1	–
16	2	CC(C)N(c1ccc(Oc2ccccc2)cc1C(=O)O)C(=O)[C@H]1CC[C@H](C(F)(F)F)CC1	–
> 10	1.64	CC(C)N(C(=O)c1ccc(Br)cc1F)c1ccc(Oc2ccccc2)cc1C(=O)O	–
16	1.3	CC(C)N(c1cc(Oc2ccccc2)ccc1C(=O)O)C(=O)[C@H]1CC[C@H](C(F)(F)F)CC1	–
> 30	0.31	O=C(O)c1ccc(Oc2ccccc2)cc1NS(=O)(=O)c1ccc(Br)cc1F	–
5	0.67	CC(C)N(c1ccc(Oc2ccccc2)cc1C(=O)O)C(=O)[C@H]1CC[C@H](C)CC1	–
> 30	0.085	Cc1ccc(S(=O)(=O)Nc2ccc(Oc3ccc(C(=O)O)cc3)cc2C(=O)O)cc1	–
4.9	0.45	CC(C)N(c1ccc(Oc2ccccc2Br)cc1C(=O)O)C(=O)[C@H]1CC[C@H](C)CC1	–
> 10	1.4	CC(C)N(C(=O)c1ccc(Br)cc1F)c1cc(Oc2ccccc2)ccc1C(=O)O	–
25	1.3	CC[C@H]1CC[C@H](C(=O)N(c2ccc(Oc3ccccc3)cc2C(=O)O)C(C)C)CC1	–
4.5	1.3	CC(C)N(c1cc(Oc2ccccc2C(F)(F)F)ccc1C(=O)O)C(=O)[C@H]1CC[C@H](C)CC1	–
0.62	0.3	CC(C)N(c1ccc(Oc2ccccc2C(C)(F)F)cc1C(=O)O)C(=O)[C@H]1CC[C@H](C)CC1	–
> 30	0.34	O=C(O)c1cc(Oc2ccccc2)ccc1NS(=O)(=O)c1ccc(Br)cc1F	–
> 40	4.3	CC[C@H]1CC[C@H](C(=O)N(c2cc(Oc3ccccc3)ccc2C(=O)O)C(C)C)CC1	–
> 30	0.22	Cc1ccc(S(=O)(=O)Nc2ccc(Oc3ccccc3)cc2C(=O)O)cc1	–
–	0.08	CC(C)N(c1ccc(Oc2ncccc2C(F)(F)F)cc1C(=O)O)C(=O)[C@H]1CC[C@H](C)CC1	half-life at 2 µM [2]: 1 h; half-life at 2 µM [3]: 1.15 h; solubility [4]: < 0.1 µg/mL

EC50 (Hepatitis C virus) [µM]	IC50 [1] [µM]	SMILES	further results
> 30	3	O=C(O)c1ccc(Oc2ccccc2C(F)(F)F)cc1NS(=O)(=O)c1ccc(Br)s1	–
> 30	0.78	Cc1ccc(Oc2ccc(NS(=O)(=O)c3ccc(C)cc3)c(C(=O)O)c2)cc1	–
–	1.9	Cc1ccc(Oc2ccc(C(=O)O)c(NS(=O)(=O)c3ccc(Br)s3)c2)cc1	–
11	0.74	CC(C)N(c1cc(Oc2ccccc2)ccc1C(=O)O)C(=O)[C@H]1CC[C@H](C)CC1	–
1.1	0.2	CC(C)N(c1ccc(Oc2ccccc2C(F)F)cc1C(=O)O)C(=O)[C@H]1CC[C@H](C)CC1	–
–	1.1	Cc1cccc(Oc2ccc(C(=O)O)c(NS(=O)(=O)c3ccc(Br)s3)c2)c1	–
7.3	0.27	Cc1ccc(S(=O)(=O)Nc2ccc(Oc3ccccc3C(F)(F)F)cc2C(=O)O)cc1	half-life at 2 µM [3]: 0.2 h; Papp A→B [5]: 3.6 ×10⁻⁶ cm/s
–	2.9	CC(=O)Nc1ccc(Oc2ccc(C(=O)O)c(NS(=O)(=O)c3ccc(Br)s3)c2)cc1	–
–	1.4	O=C(O)c1cccc(Oc2ccc(C(=O)O)c(NS(=O)(=O)c3ccc(Br)s3)c2)c1	–
> 25	0.61	O=C(O)c1ccc(Oc2ccccc2)cc1NS(=O)(=O)c1ccc(Br)s1	–
2.8	0.74	CC(C)N(c1ccc(Oc2ccccc2OC(F)(F)F)cc1C(=O)O)C(=O)[C@H]1CC[C@H](C)CC1	–
0.17	0.19	CC(C)N(c1ccc(Oc2ccncc2C(F)(F)F)cc1C(=O)O)C(=O)[C@H]1CC[C@H](C)CC1	–
–	2.2	O=C(O)c1ccc(Oc2ccc(C(=O)O)c(NS(=O)(=O)c3ccc(Br)s3)c2)cc1	–
8.6	0.21	Cc1ccc(S(=O)(=O)Nc2ccc(OC3CCCC3)cc2C(=O)O)cc1	–
–	1.5	Cc1ccccc1Oc1ccc(C(=O)O)c(NS(=O)(=O)c2ccc(Br)s2)c1	–
7	0.37	Cc1ccc(S(=O)(=O)Nc2ccc(Oc3ccccc3OC(F)(F)F)cc2C(=O)O)cc1	–
> 30	0.16	Cc1ccc(S(=O)(=O)Nc2cc(Oc3ccccc3)ccc2C(=O)O)cc1	–
30	0.29	CC(=O)Nc1ccc(Oc2ccc(NS(=O)(=O)c3ccc(C)cc3)c(C(=O)O)c2)cc1	–
4.3	0.33	CC(C)N(c1ccc(Oc2ccccc2C2CC2)cc1C(=O)O)C(=O)[C@H]1CC[C@H](C)CC1	–
> 30	0.33	Cc1ccc(S(=O)(=O)Nc2ccc(Oc3cccc(C(=O)O)c3)cc2C(=O)O)cc1	–

SMILES	EC50 (Hepatitis C virus) [µM]	IC50 [1] [µM]	further results
CC(C)N(c1ccc(Oc2ccccc2C(F)(F)F)cc1C(=O)O)C(=O)[C@H]1CC[C@H](C)CC1	–	0.19	pKa [6]: 5.5; half-life at 2 µM [2]: 1.3 h; Papp A→B [5]: 15 ×10⁻⁶ cm/s; solubility [4]: < 0.1 µg/mL; logD [7]: 2.9
